These results are taken from patent publication US9988430B2, “Stable GLP-1 based GLP-1/glucagon receptor co-agonists” (Novo Nordisk A/S, priority 2014, dated 2018).

*1 amine or outer side, *2 acyl side, *3 side chain or, on linkers, in order; H or OH if unused. Where a SMILES comes first, the peptide text is derived from it. Bridges are numbered along the chain shown (N, C = ends). Roman numbers before positions name the chains, in order. [ ]: non-standard residue; d: D form. The star is where a group is joined. C18 diacid = O=C(O)CCCCCCCCCCCCCCCCC(=O)*; γGlu = O=C(O)[C@H](CCC(=O)[*:2])N[*:1]; Desaminohistidyl = O=C(CCc1c[nH]cn1)*; Aib = CC(C)(N)C(=O)O

This experiment concerns the target T1, human glucagon receptor (Homo sapiens, UniProt P47871).
T1 construct: expressed in transfected cells; host or cells: membranes of BHK cells, clone BHK hGCGR A3*25
Briefly: Assay (I)(b): glucagon receptor potency, CRE luciferase reporter gene assay in BHK cells. It counts as cell-based. The following applies: BHK cells expressing human glucagon receptor, read-out: EC50 GlucagonR. The protocol:
Assay (I): GLP-1 and Glucagon Receptor Potency The purpose of this example was to test the activity or potency, of the GLP-1 derivatives of the invention, in vitro. The in vitro potency is the measure of human GLP-1 receptor (GLP-1R) or glucagon receptor (glucagonR) activation, respectively, in a whole cell assay. In vitro potency was determined by measuring the cellular response of human GLP-1 or glucagon receptor activation, respectively, in a reporter gene assay. The assay was performed in a BHK cell line that stably expresses either the human GLP-1 receptor or the human glucagon receptor and comprises the DNA for the cAMP response element (CRE) coupled to a promoter and the gene for firefly luciferase (CRE luciferase). […] When assay incubation was completed, the luciferase substrate (luciferin) was added and the enzyme converted luciferin to oxyluciferin and produces bioluminescence. The luminescence was measured as the readout for the assay. […] The cells were counted and adjusted to 5×10EE3 cells/50 μl (1×10EE5 cells/ml) in Assay Medium. […] Each assay plate was read in a Perkin Elmer TopCount NXT instrument. […] EC50 values were calculated by the software and reported in pM.

T1 sequence (P47871 26-477): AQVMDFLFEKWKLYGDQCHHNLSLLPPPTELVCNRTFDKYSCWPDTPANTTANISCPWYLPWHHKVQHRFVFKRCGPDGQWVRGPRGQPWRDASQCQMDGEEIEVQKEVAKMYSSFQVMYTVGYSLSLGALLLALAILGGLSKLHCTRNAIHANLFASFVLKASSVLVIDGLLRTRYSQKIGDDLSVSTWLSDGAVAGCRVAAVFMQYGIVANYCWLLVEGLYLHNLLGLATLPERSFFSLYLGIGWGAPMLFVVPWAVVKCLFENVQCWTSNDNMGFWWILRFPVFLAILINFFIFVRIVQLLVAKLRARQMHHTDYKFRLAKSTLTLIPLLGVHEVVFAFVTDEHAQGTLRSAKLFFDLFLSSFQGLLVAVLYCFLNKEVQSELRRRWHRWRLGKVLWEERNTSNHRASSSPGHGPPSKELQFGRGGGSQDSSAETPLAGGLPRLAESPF

In general, EC50 refers to the concentration that produces a half-maximal response. For `CC[C@H](C)[C@H](NC(=O)[C@H](Cc1ccccc1)NC(=O)[C@H](CCC(=O)O)NC(=O)[C@H](CCCNC(=N)N)NC(=O)[C@H](C)NC(=O)[C@H](C)NC(=O)[C@H](CCC(N)=O)NC(=O)CNC(=O)[C@H](CCC(=O)O)NC(=O)[C@H](CC(C)C)NC(=O)[C@H](Cc1ccc(O)cc1)NC(=O)[C@H](CCCNC(=N)N)NC(=O)[C@H](CO)NC(=O)[C@@H](NC(=O)[C@H](CC(=O)O)NC(=O)[C@H](CO)NC(=O)[C@@H](NC(=O)[C@H](Cc1ccccc1)NC(=O)[C@@H](NC(=O)CNC(=O)[C@H](Cc1c[nH]cn1)NC(=O)C(C)(C)NC(=O)CCc1c[nH]cn1)[C@@H](C)O)[C@@H](C)O)C(C)C)C(=O)N[C@@H](C)C(=O)N[C@@H](Cc1c[nH]c2ccccc12)C(=O)N[C@@H](CC(C)C)C(=O)N[C@@H](CC(C)C)C(=O)N[C@@H](CCCCNC(=O)CNC(=O)[C@H](CO)NC(=O)[C@H](CCC(=O)O)NC(=O)CNC(=O)[C@H](CO)NC(=O)CC[C@H](NC(=O)CC[C@H](NC(=O)CCCCCCCCCCCCCCCCC(=O)O)C(=O)O)C(=O)O)C(=O)N[C@H](C(N)=O)[C@@H](C)O` [Example 8, N^ε34-[2-[[(2S)-2-[[(2S)-4-carboxy-2-[[2-[[(2S)-2-[[(4S)-4-carboxy-4-[[(4S)-4-carboxy-4-(17-carboxyheptadecanoylamino)butanoyl]amino]butanoyl]amino]-3-hydroxypropanoyl]amino]acetyl]amino]butanoyl]amino]-3-hydroxypropanoyl]amino]acetyl]-[Imp7,Aib8,His9,Arg18,Arg26,Leu33,Thr35]-GLP-1-(7-35)-peptide amide] (I: Desaminohistidyl-[Aib]HGTFTSDVSRYLEGQAAREFIAWLLKT-NH2 / II: {C18 diacid-γGlu-γGlu}-SGESG; amide I:27-II:C), the EC50 is 0.143 nM.
